Patent US7468270B2, “Probiotic strains, a process for the selection of them, compositions thereof, and their use” (Puleva Biotech, S.A., priority 2003, dated 2008)

Test system: Salmonella typhmurium and Escherichia coli
Assay: Production of antimicrobial metabolites, agar well diffusion assay
Assay type: cell-based
Settings: dilution of each metabolic acid at pH 4.5; data not shown
Method: The probiotic strains of this invention were assessed for their capability to produce antimicrobial metabolites using an agar well diffusion assay. MRS agar plates containing 10^6 cfu/ml of different pathogenic bacteria strain (Salmonella typhmurium and Escherichia coli) were prepared. Wells, with a diameter of 5 mm, where then cut in the agar using a sterile cork-borer. Then, 50 μl of a 2 fold concentrate supernatant of each probiotic strain culture were added to the wells and allowed to diffuse into the agar during a 2 hours preincubation period at 4° C., followed by aerobic incubation of the plates at 37° C. for 16-18 hours. The antimicrobial activity of each supernatant was considered high if the diameter of the inhibition hallo for both pathogenic bacteria strains was >12, moderate between 8 and 12, and slight <8 (FIG. 11)
Moreover, it was also tested if the antimicrobial activity of the supernatants was due to a antimicrobial substance or to the production of metabolic acids. […] It was also tested the antimicrobial capabilities of supernatants obtained from bacterial cultures using glucose or lactose as a carbohydrate source.

Compound | Inhibition of growth of Salmonella or E. coli by a dilution of metabolic acid
CC(=O)O [acetic] | None of these situations inhibited the growth
CCCC(=O)O [butyric, butyric acid] | None of these situations inhibited the growth
